pIC50: −log10 of the molar value. Calls of active or inactive are those of the source. No cut-off for these calls is given here.
What was measured:
[1] = test system: Trypanosoma brucei brucei; experiment: Opposing effect on metabolism in bloodstream Trypanosoma brucei brucei 427 at 1 uM incubated for 5 hrs by LC-MS based principal component analysis; type: functional, organism-based
[2] = test system: Trypanosoma brucei brucei; experiment: Effect on nucleotide metabolism in bloodstream Trypanosoma brucei brucei 427 at 1 uM incubated for 5 hrs by pathway enrichment analysis; type: functional
[3] = test system: Trypanosoma brucei brucei; experiment: Effect on acetyl-CoA level in bloodstream Trypanosoma brucei brucei 427 assessed as increase in pyruvate level at 1 uM incubated for 5 hrs; type: functional
[4] = test system: Trypanosoma brucei brucei; experiment: Disruption of nucleotide metabolism in bloodstream Trypanosoma brucei brucei 427 assessed as accumulation of nucleosides at 1 uM incubated for 5 hrs; type: functional, organism-based
[5] = test system: Trypanosoma brucei brucei; experiment: Downregulation of NADPH level in bloodstream Trypanosoma brucei brucei 427 assessed as increase in pyruvate level at 1 uM incubated for 5 hrs; type: functional
[6] = test system: Trypanosoma brucei brucei; experiment: Effect on free carnitine level in bloodstream Trypanosoma brucei brucei 427 assessed as increase in pyruvate level at 1 uM incubated for 5 hrs; type: functional
[7] = test system: Trypanosoma brucei brucei; experiment: Induction of glycolysis in bloodstream Trypanosoma brucei brucei 427 assessed as increase in succinate level at 1 uM incubated for 5 hrs; type: functional
[8] = test system: Trypanosoma brucei brucei; experiment: Disruption of nucleotide metabolism in bloodstream Trypanosoma brucei brucei 427 assessed as depletion of ATP at 1 uM incubated for 5 hrs; type: functional, organism-based
[9] = test system: Trypanosoma brucei brucei; experiment: Upregulation of carnitine to acetyl-carnitine ratio in bloodstream Trypanosoma brucei brucei 427 assessed as increase in pyruvate level at 1 uM incubated for 5 hrs; type: functional
[10] = test system: Trypanosoma brucei brucei; experiment: Induction of glycolysis in bloodstream Trypanosoma brucei brucei 427 assessed as increase in pyruvate level at 1 uM incubated for 5 hrs; type: functional
[11] = test system: Trypanosoma brucei brucei; experiment: Disruption of nucleotide metabolism in bloodstream Trypanosoma brucei brucei 427 assessed as accumulation of NMP at 1 uM incubated for 5 hrs; type: functional, organism-based
[12] = test system: Trypanosoma brucei brucei; experiment: Effect on free CoA level in bloodstream Trypanosoma brucei brucei 427 assessed as increase in pyruvate level at 1 uM incubated for 5 hrs; type: functional
[13] = test system: Trypanosoma brucei brucei; experiment: Disruption of nucleotide metabolism in bloodstream Trypanosoma brucei brucei 427 assessed as accumulation of purine/pyrimidine base forms at 1 uM incubated for 5 hrs; type: functional, organism-based
[14] = test system: Trypanosoma brucei brucei; experiment: Effect on acetyl-carnitine level in bloodstream Trypanosoma brucei brucei 427 assessed as increase in pyruvate level at 1 uM incubated for 5 hrs; type: functional
[15] = test system: Trypanosoma brucei brucei; experiment: Effect on stearoyl-CoA level in bloodstream Trypanosoma brucei brucei 427 assessed as increase in pyruvate level at 1 uM incubated for 5 hrs; type: functional
[16] = test system: Trypanosoma brucei brucei; experiment: Downregulation of 6-phosphogluconate level in bloodstream Trypanosoma brucei brucei 427 assessed as increase in pyruvate level at 1 uM incubated for 5 hrs; type: functional
[17] = test system: Trypanosoma brucei brucei; experiment: Effect on carbohydrate metabolism in bloodstream Trypanosoma brucei brucei 427 at 1 uM incubated for 5 hrs by pathway enrichment analysis; type: functional
[18] = test system: Trypanosoma brucei brucei; experiment: Disruption of nucleotide metabolism in bloodstream Trypanosoma brucei brucei 427 assessed as depletion of NTP at 1 uM incubated for 5 hrs; type: functional, organism-based
[19] = test system: Trypanosoma brucei brucei; experiment: Effect on palmitoyl-CoA level in bloodstream Trypanosoma brucei brucei 427 assessed as increase in pyruvate level at 1 uM incubated for 5 hrs; type: functional
[20] = test system: Trypanosoma brucei brucei; experiment: Disruption of nucleotide metabolism in bloodstream Trypanosoma brucei brucei 427 assessed as accumulation of AMP at 1 uM incubated for 5 hrs; type: functional, organism-based
[21] = test system: Trypanosoma brucei brucei; experiment: Disruption of nucleotide metabolism in bloodstream Trypanosoma brucei brucei 427 assessed as accumulation of NDP at 1 uM incubated for 5 hrs; type: functional, organism-based
[22] = Cytotoxicity against HEK293 cells; type: toxicity, cell-based; details: human
[23] = Selectivity ratio of IC50 for HEK293 cells to IC50 for Trypanosoma brucei brucei; type: toxicity; details: human, read-out: Ratio IC50
[24] = test system: Trypanosoma brucei brucei; experiment: Upregulation of glycolytic flux in bloodstream Trypanosoma brucei brucei 427 assessed as increase in pyruvate level at 1 uM incubated for 5 hrs; type: functional
[25] = test system: Trypanosoma brucei brucei; experiment: Anti-trypanosomal activity against Trypanosoma brucei brucei; type: functional, organism-based
[26] = test system: Trypanosoma brucei brucei; experiment: Induction of glycolysis in bloodstream Trypanosoma brucei brucei 427 assessed as increase in glycerol level at 1 uM incubated for 5 hrs; type: functional
[27] = test system: Trypanosoma brucei brucei; experiment: Anti-trypanosomal activity against Trypanosoma brucei brucei at 10 uM relative to control; type: functional
[28] = test system: Trypanosoma brucei brucei; experiment: Anti-trypanosomal activity against Trypanosoma brucei brucei at 42 uM relative to control; type: functional
[29] = Cytotoxicity against HEK293 cells assessed as inhibition of cell viability at 83 uM relative to control; type: toxicity, cell-based; details: human, read-out: INH
[30] = test system: Trypanosoma brucei brucei; experiment: Disruption of nucleotide metabolism in bloodstream Trypanosoma brucei brucei 427 assessed as depletion of CTP at 1 uM incubated for 5 hrs; type: functional, organism-based
[31] = test system: Trypanosoma brucei brucei; experiment: Disruption of nucleotide metabolism in bloodstream Trypanosoma brucei brucei 427 assessed as depletion of deoxy-ATP at 1 uM incubated for 5 hrs; type: functional, organism-based
[32] = test system: Trypanosoma brucei brucei; experiment: Disruption of nucleotide metabolism in bloodstream Trypanosoma brucei brucei 427 assessed as depletion of GTP at 1 uM incubated for 5 hrs; type: functional, organism-based
[33] = test system: Trypanosoma brucei brucei; experiment: Disruption of nucleotide metabolism in bloodstream Trypanosoma brucei brucei 427 assessed as fold increase in AMP at 1 uM incubated for 5 hrs; type: functional
[34] = test system: Trypanosoma brucei brucei; experiment: Disruption of nucleotide metabolism in bloodstream Trypanosoma brucei brucei 427 assessed as depletion of deoxy-UTP at 1 uM incubated for 5 hrs; type: functional, organism-based
[35] = test system: Trypanosoma brucei brucei; experiment: Disruption of nucleotide metabolism in bloodstream Trypanosoma brucei brucei 427 assessed as depletion of deoxy-GTP at 1 uM incubated for 5 hrs; type: functional, organism-based
[36] = test system: Trypanosoma brucei brucei; experiment: Disruption of nucleotide metabolism in bloodstream Trypanosoma brucei brucei 427 assessed as depletion of deoxy-CTP at 1 uM incubated for 5 hrs; type: functional, organism-based
[37] = test system: Trypanosoma brucei brucei; experiment: Disruption of nucleotide metabolism in bloodstream Trypanosoma brucei brucei 427 assessed as depletion of UTP at 1 uM incubated for 5 hrs; type: functional, organism-based
[38] = test system: Trypanosoma brucei brucei; experiment: Disruption of nucleotide metabolism in bloodstream Trypanosoma brucei brucei 427 assessed as depletion of ATP at 1 uM incubated for 5 hrs relative to control; type: functional
[39] = test system: Trypanosoma brucei brucei; experiment: Anti-trypanosomal activity against Trypanosoma brucei brucei incubated for 48 hrs by alamar blue assay; type: functional, organism-based

| Compound | Activity [1] | Activity [2] | Activity [3] | Activity [4] | Activity [5] | Activity [6] | Activity [7] | Activity [9] | Activity [10] | Activity [11] | Activity [12] | Activity [13] | Activity [14] | Activity [15] | Activity [16] | Activity [19] | Activity [21] | selectivity ratio [23] | Activity [24] | Activity [26] | also measured |
| --- | --- | --- | --- | --- | --- | --- | --- | --- | --- | --- | --- | --- | --- | --- | --- | --- | --- | --- | --- | --- | --- |
| CCc1ccccc1/N=C(\NCCN1CCOCC1)NC(=O)c1ccc(C)cc1 | Active | Active | Active | inactive | inactive | inactive | inactive | inactive | inactive | inactive | inactive | inactive | inactive | inactive | inactive | inactive | inactive | > 19 | inactive | inactive | Activity [8]: inactive; Activity [17]: Active; Activity [18]: inactive; Activity [20]: inactive; pIC50 [22]: < 4.08; pIC50 [25]: 5.36 |
| CCc1ccccc1/N=C(\NCCN1CCOCC1)NC(=O)c1cccc(Cl)c1 |  |  |  |  |  |  |  |  |  |  |  |  |  |  |  |  |  |  |  |  | inhibition at 10 µM [27]: 87%; inhibition at 42 µM [28]: 68%; cytotoxicity at 83 µM [29]: 67% |
| Cc1ccc(/N=C(\NCCN2CCOCC2)NC(=O)c2ccccc2)c(Cl)c1 |  |  | inactive |  | Active | Active | Active | Active | Active |  | Active |  | Active | Active | Active | Active |  |  | Active | Active | Activity [30]: Active; Activity [31]: Active; inhibition at 10 µM [27]: 54%; Activity [8]: Active; Activity [32]: Active; fold change (FC) [33]: 7; Activity [34]: Active; Activity [35]: Active; Activity [36]: Active; Activity [37]: Active |
| Cc1cc(Br)ccc1/N=C(\NCCN1CCOCC1)NC(=O)c1ccccc1 | Active | Active | inactive | Active | Active | Active | Active | Active | Active | Active | Active | Active | Active | Active | Active | Active | Active | > 33 | Active | Active | Activity [30]: Active; Activity [31]: Active; Activity [38]: 25%; Activity [32]: Active; Activity [34]: Active; Activity [35]: Active; Activity [36]: Active; Activity [17]: Active; pIC50 [22]: < 4.08; Activity [37]: Active; pIC50 [25]: 5.60 |
| CCc1ccccc1/N=C(\NCCN1CCOCC1)NC(=O)c1ccccc1 |  |  | Active | inactive | inactive | inactive | inactive | inactive | inactive | inactive | inactive | inactive | inactive | inactive | inactive | inactive | inactive | ≥ 29 | inactive | inactive | pIC50 [39]: 5.59; Activity [18]: inactive |

— ChEMBL document CHEMBL5505990, “Novel aroyl guanidine anti-trypanosomal compounds that exert opposing effects on parasite energy metabolism” (Eur J Med Chem, 2024)
